US20030130636A1, “System for improving skin health of absorbent article wearers” (priority 2001, published 2003)
Where “and” joins values, the source holds several entries; their conditions need not be identical. Equal values may be shown once.

How the values were obtained:
EPIDERM skin culture [1] = assay: MTT assay, viability of EPIDERM skin culture; assay type: cell-based, human; settings: 0.4% (w/v) in PBS + protease insult, relative to control+control
From the text: The MTT dye is taken up by the cells. The reduction of the dye as a result of cellular metabolism can be used to measure the cytotoxicity of the test compositions. In order to confirm viability, inserts of the EPIDERM skin culture that have already been subjected to the test compositions and biological insults are removed from their media and are washed consecutively through immersion in three different beakers of PBS. Fresh PBS is used for each test composition or control being evaluated. The PBS is discarded onto paper towel. The EPIDERM skin culture inserts are then patted onto paper towel and placed into the wells of a 24 well plate containing 300 microliters of pre-warmed media. After all of the EPIDERM skin culture inserts are washed, they are transferred to new 24 well plates containing 300 microliters of the MTT reagent. […] The plates are incubated for 2-3 hours in a 37° C., 5% CO2 incubator. After incubation, the EPIDERM skin culture inserts are transferred to 24 well plates and are immersed in 2 milliliters of MTT extraction buffer. The extraction buffer extracts the MTT reagent from the cells. […] The optical density (OD) of the samples is measured at 570 nm using a spectrophotometer. […] This reading is subtracted from a background reading at 650 nm to improve data quality.

EPIDERM skin culture [2] = assay: EPIDERM skin culture study: IL-1α response to fecal protease (trypsin-chymotrypsin) insult; assay type: cell-based, human; settings: six hours, one value per set of experiments
Procedure: In order to evaluate the efficacy of the skin care solutions of the invention, a human skin culture was selected to model the response of the human epidermis. EPIDERM skin culture is a cornified, air-interfaced human skin culture. EPIDERM skin culture has multiple layers of progressively differentiated keratinocytes resembling human epidermis. EPIDERM EPI-200 skin culture can be purchased from MatTek Corporation of Ashland, MA. Experiments using EPIDERM skin culture are conducted in six well plates. Each well contains one milliliter of pre-warmed media that is the same as the EPIDERM skin culture media. The plates are then incubated in a 37° C., 5% CO2 incubator for thirty minutes. […]
After application of the insult solution, the well plates are incubated for six hours in the 37° C., 5% CO2 incubator. […] The response of the EPIDERM skin culture to the test compositions/control and the insult solution is determined by measuring the amount of interleukin-1 alpha (hereinafter “IL-1α”). Interleukin-1 alpha can be quantified using an Interleukin-1 alpha Quantikine Kit available from R&D Systems of Minneapolis, Minnesota. Interleukin-1 alpha measurements are converted to Loges for each of the treatments and the averages for each treatment are calculated. […]
(Test composition+insult) result=the measured amount of IL-1α from treatment with a test composition+protease insult. […]

Compound	Viability (percentage) (EPIDERM skin culture [1])	Mean Reduction of Interleukin-1 Alpha (percentage) (EPIDERM skin culture [2]; 1% in PBS)	Mean Reduction of Interleukin-1 Alpha (percentage) (EPIDERM skin culture [2]; 10% in PBS)
O=C(O[C@@H]1Cc2c(O)cc(O)cc2O[C@@H]1c1cc(O)c(O)c(O)c1)c1cc(O)c(O)c(O)c1 [Epigallocatechin gallate]	103% and 101% and 112%	–	–
[Cl-].[Cl-].[Sr+2] [Strontium Chloride]	–	0% (10)	15% (10)
